In patent US8470830B2, “5-(heterocyclyl)alkyl-N-(arylsulfonyl)indole compounds and their use as 5-HT6 ligands” (Suven Life Sciences Limited, priority 2007, dated 2013):
Where a name gives a salt, the structure may show the parent alone. Read-outs that look alike come from different tables or passages of the source.

Tests used:
[1] = biological target: T1, Human 5-HT6 Receptor (Homo sapiens, UniProt P50406); experiment: Binding assay for human 5-HT6 receptor ([3H]LSD radioligand)
T1 construct: expressed in transfected cells; host or cells: HEK293
T1 sequence (P50406 whole entry): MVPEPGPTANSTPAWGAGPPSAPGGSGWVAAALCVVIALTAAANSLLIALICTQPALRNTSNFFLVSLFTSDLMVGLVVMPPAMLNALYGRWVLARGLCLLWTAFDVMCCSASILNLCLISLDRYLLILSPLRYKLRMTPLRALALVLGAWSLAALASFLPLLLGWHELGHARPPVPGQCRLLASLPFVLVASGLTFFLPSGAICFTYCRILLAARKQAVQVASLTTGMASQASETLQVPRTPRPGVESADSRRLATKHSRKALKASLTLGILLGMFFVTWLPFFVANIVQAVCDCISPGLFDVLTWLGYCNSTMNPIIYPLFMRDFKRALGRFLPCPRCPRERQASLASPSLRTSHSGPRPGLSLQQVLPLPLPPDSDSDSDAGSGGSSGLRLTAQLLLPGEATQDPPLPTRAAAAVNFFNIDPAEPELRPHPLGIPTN
Experimental: Compounds can be tested according to the following the procedures.
Receptor source: Human recombinant expressed in HEK293 cells
Radioligand [^3H]LSD (60-80 Ci/mmol)
Non-specific determinant: Methiothepin mesylate—[0.1 μM]
Reference compound: Methiothepin mesylate
Positive control: Methiothepin mesylate
Reactions were carried out in […] TRIS-HCl (pH 7.4) containing 10 μM MgCl2, 0.5 mM EDTA for 60 minutes at 37° C. The reaction was terminated by rapid vacuum filtration onto glass fiber filters. Radioactivity trapped onto the filters was determined and compared to control values in order to ascertain any interactions of test compound(s) with the cloned serotonin 5-HT6 binding site.
Literature Reference: Monsma F. J. Jr., et al., Molecular Cloning and Expression of Novel Serotonin Receptor with High Affinity for Tricyclic Psychotropic Drugs.

[2] = tested on: animal models for schizophrenia; details: literature (Pouzet et al. 2002); cited from earlier work
[3] = tested on: 5-HT6 receptor; details: literature; cited from earlier work
[4] = human recombinant receptor in HEK293 cells, [3H]LSD 1.5 nM, 60 minutes at 37° C., read-out: Radio-ligand binding data at 5-HT6 (h) Ki

Structure (SMILES)	melting point	Ki [1, 4]	further results
CCN1CCN(Cc2ccc3c(ccn3S(=O)(=O)c3cccc(C(F)(F)F)c3)c2)CC1.Cl.Cl	265 to 270 °C	–	–
CN1CCN(Cc2ccc3c(c2)c(Cl)cn3S(=O)(=O)c2cc(C(F)(F)F)ccc2Cl)CC1 (as salt: hydrochloride) [Compound 27, 1-(2-Chloro-5-trifluoromethylbenznesulfonyl)-3-chloro-5-(4-methylpiperazin-1-ylmethyl)-1H-indole dihydrochloride]	287 to 290 °C	–	–
CC(C)c1ccc(S(=O)(=O)n2ccc3cc(CN4CCN(C)CC4)ccc32)cc1 [Compound 5, 1-[4-(1-Methylethyl)benzenesulfonyl]-5-(4-methylpiperazin-1-ylmethyl)-1H-indole]	–	17.9 nM	–
CCN1CCN(Cc2ccc3c(ccn3S(=O)(=O)c3ccc(C(C)C)cc3)c2)CC1.Cl.Cl [Compound 8, 1-[4-{1-Methylethyl)benzenesulfonyl]-5-(4-ethylpiperazin-1-ylmethyl)-1H-indole dihydrochloride]	258 to 261 °C	5.81 nM	–
CCN1CCN(Cc2ccc3c(ccn3S(=O)(=O)c3ccc(F)cc3F)c2)CC1.Cl.Cl [Compound 10, 1-(2,4-Difluorobenzenesulfonyl)-5-(4-ethylpiperazin-1-ylmethyl)-1H-indole dihydrochloride]	271 to 274.5 °C	12.4 nM	–
CCN1CCN(Cc2ccc3c(ccn3S(=O)(=O)c3cccc(Cl)c3Cl)c2)CC1.Cl.Cl [Compound 14, 1-(2,3-Dichlorobenzenesulfonyl)-5-(4-ethylpiperazin-1-ylmethyl)-1H-indole dihydrochloride]	273.5 to 277 °C	5.52 nM	–
CN1CCN(Cc2ccc3c(ccn3S(=O)(=O)c3cc(C(F)(F)F)ccc3Cl)c2)CC1 [Compound 19, 1-(2-Chloro-5-trifluoromethylbenzenesulfonyl)-5-(4-methylpiperazin-1-ylmethyl)-1H-indole]	–	11.3 nM	–
CN1CCN(Cc2ccc3c(ccn3S(=O)(=O)c3cccc(Cl)c3Cl)c2)CC1 [Compound 21, 1-(2,3-Dichlorobenzenesulfonyl)-5-(4-methylpiperazin-1-ylmethyl)-1H-indole]	–	18 nM	–
CN1CCN(Cc2ccc3c(c2)c(Cl)cn3S(=O)(=O)c2ccc(Cl)cc2)CC1 [Compound 24, 1-(4-Chlorobenzenesulfonyl)-3-chloro-5-(4-methylpiperazin-1-ylmethyl)-1H-indole]	139.2 to 140.4 °C	–	–
CN1CCN(Cc2ccc3c(c2)c(Cl)cn3S(=O)(=O)c2ccc(F)cc2)CC1 [Compound 25, 1-(4-Fluorobenzenesulfonyl)-3-chloro-5-(4-methylpiperazin-1-ylmethyl)-1H-indole]	118.8 to 120.1 °C	2.97 nM	–
CN1CCN(Cc2ccc3c(c2)c(Cl)cn3S(=O)(=O)c2ccc(F)cc2F)CC1.Cl.Cl [Compound 26, 1-(2,4-Difluorobenzenesulfonyl)-3-chloro-5-(4-methylpiperazin-1-ylmethyl)-1H-indole dihydrochloride]	251.85 to 253 °C	3.36 nM	–
CN1CCN(Cc2ccc3c(c2)c(Cl)cn3S(=O)(=O)c2cc(C(F)(F)F)ccc2Cl)CC1 [Compound 27, 1-(2-Chloro-5-trifluoromethylbenznesulfonyl)-3-chloro-5-(4-methylpiperazin-1-ylmethyl)-1H-indole dihydrochloride]	–	4.16 nM	–
CC(C)Oc1c(CN2CCN(C)CC2)ccc2c1ccn2S(=O)(=O)c1ccc(F)cc1 [Compound 28, 1-(4-Fluorobenznesulfonyl)-4-isopropoxy-5-(4-methylpiperazin-1-ylmethyl)-1H-indole]	–	276 nM	–
Cl.Cl.O=S(=O)(c1ccccc1Br)n1ccc2cc(CN3CCNCC3)ccc21 [Compound 31, 1-(2-Bromobenzenesulfonyl)-5-(piperazin-1-ylmethyl)-1H-indole dihydrochloride]	264.2 to 266.9 °C	7.77 nM	–
Cl.Cl.O=S(=O)(c1ccc(F)cc1F)n1cc(Cl)c2cc(CN3CCNCC3)ccc21 [Compound 32, 1-(2,4-Difluorobenzenesulfonyl)-3-chloro-5-(piperazin-1-ylmethyl)-1H-indole dihydrochloride]	241.5 to 246.1 °C	–	Ki [1]: 5.77 nM
COc1ccc(NS(=O)(=O)c2sc3ccc(Cl)cc3c2C)cc1N1CCNCC1 [SB-271046, 5-Chloro-N-(4-methoxy-3-piperazin-1-ylphenyl)-3-methyl-2-benzothiophenesulfonamide]	–	–	activity in animal tests related to positive or negative symptoms of schizophrenia [2]: inactive
CN(C)CCC=C1c2ccccc2CCc2ccccc21 [amitriptyline]	–	–	affinity for the 5-HT6 receptor [3]: high affinity
CN1CCN2c3ccccc3Cc3ccccc3C2C1 (stereo not drawn) [mianserin]	–	–	affinity for the 5-HT6 receptor [3]: high affinity

Second part, led by results:

melting point	Ki [1, 4]	Structure (SMILES)	further results
264.5 to 267 °C	–	CCN1CCN(Cc2ccc3c(ccn3S(=O)(=O)c3ccc(Br)cc3)c2)CC1.Cl.Cl	–
263 to 267 °C	–	CCN1CCN(Cc2ccc3c(ccn3S(=O)(=O)c3ccc(C)cc3)c2)CC1.Cl.Cl	–
266 to 270.5 °C	–	CCN1CCN(Cc2ccc3c(ccn3S(=O)(=O)c3ccccc3)c2)CC1.Cl.Cl	–
265 to 269 °C	–	CCN1CCN(Cc2ccc3c(ccn3S(=O)(=O)c3ccc(Cl)cc3)c2)CC1.Cl.Cl	–
254 to 258 °C	–	CCN1CCN(Cc2ccc3c(ccn3S(=O)(=O)c3ccc(OC)cc3)c2)CC1.Cl.Cl	–
266 to 270.5 °C	3.83 nM	CN1CCN(Cc2ccc3c(ccn3S(=O)(=O)c3ccccc3)c2)CC1.Cl.Cl [Compound 1, 1-Benzenesulfonyl-5-(4-methylpiperazin-1-ylmethyl)-1H-indole dihydrochloride]	–
–	14.6 nM	CN1CCN(Cc2ccc3c(ccn3S(=O)(=O)c3ccc(F)cc3)c2)CC1 [Compound 3, 1-(4-Fluorobenzenesulfonyl)-5-(4-methylpiperazin-1-ylmethyl)-1H-indole]	–
265 to 270 °C	3.21 nM	CCN1CCN(Cc2ccc3c(ccn3S(=O)(=O)c3ccc(F)cc3)c2)CC1.Cl.Cl [Compound 7, 1-(4-Fluorobenzenesulfonyl)-5-(4-ethylpiperazin-1-ylmethyl)-1H-indole dihydrochloride]	–
255.5 to 259 °C	2.56 nM	CCN1CCN(Cc2ccc3c(ccn3S(=O)(=O)c3ccccc3Br)c2)CC1.Cl.Cl [Compound 15, 1-(2-Bromobenzenesulfonyl)-5-(4-ethylpiperazin-1-ylmethyl)-1H-indole dihydrochloride]	–
–	8.3 nM	CN1CCN(Cc2ccc3c(ccn3S(=O)(=O)c3ccccc3Br)c2)CC1 [Compound 20, 1-(2-Bromobenzenesulfonyl)-5-(4-methylpiperazin-1-ylmethyl)-1H-indole]	–
–	3.02 nM	CN1CCN(Cc2ccc3c(ccn3S(=O)(=O)c3ccc(Cl)cc3)c2)CC1 [Compound 22, 1-(4-Chlorobenzenesulfonyl)-5-(4-methylpiperazin-1-ylmethyl)-1H-indole]	–
254 to 259.6 °C	2.58 nM	Cl.Cl.O=S(=O)(c1ccc(F)cc1)n1cc(Cl)c2cc(CN3CCNCC3)ccc21 [Compound 30, 1-(4-Fluorobenzenesulfonyl)-3-chloro-5-(piperazin-1-ylmethyl)-1H-indole dihydrochloride]	–
250.4 to 256.2 °C	2.52 nM	Cl.Cl.O=S(=O)(c1ccccc1)n1ccc2cc(CN3CCNCC3)ccc21 [Compound 33, 1-(Benzenesulfonyl)-5-(piperazin-1-ylmethyl)-1H-indole dihydrochloride]	–
250 to 254 °C	14.9 nM	CC(C)c1ccc(S(=O)(=O)n2ccc3cc(CN4CCNCC4)ccc32)cc1.Cl.Cl [Compound 34, 1-[4-(1-Methylethyl)benzenesulfonyl]-5-(piperazin-1-ylmethyl)-1H-indole dihydrochloride]	–
